Source: paper PMC11303563 (Communications Medicine, 2024)
Several values for one entry are separate records, joined by “and”; a condition that tells them apart may be missing. Equal entries are not always repeated.

Assays:
full-length human THRα = target: T1, full-length human THRα (Homo sapiens, UniProt P10827); assay: [125I]-T3-displacement assay, THRα; details: from IC50 values THRα vs THRβ
T1 sequence (P10827 1-410 isoform P10827-2): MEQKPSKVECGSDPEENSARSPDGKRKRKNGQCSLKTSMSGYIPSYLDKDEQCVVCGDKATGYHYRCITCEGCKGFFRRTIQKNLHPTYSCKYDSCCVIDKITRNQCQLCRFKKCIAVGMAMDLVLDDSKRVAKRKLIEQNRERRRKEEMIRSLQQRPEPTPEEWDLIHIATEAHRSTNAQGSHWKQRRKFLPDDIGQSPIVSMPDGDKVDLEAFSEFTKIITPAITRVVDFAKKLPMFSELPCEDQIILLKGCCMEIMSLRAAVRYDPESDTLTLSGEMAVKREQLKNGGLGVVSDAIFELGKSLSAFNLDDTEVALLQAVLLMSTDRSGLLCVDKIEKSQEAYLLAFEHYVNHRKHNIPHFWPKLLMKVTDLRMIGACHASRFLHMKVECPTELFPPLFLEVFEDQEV
Procedure: The coding sequences of full-length human THRα and THRβ were amplified by PCR.
The PCR products of THRα and β were cloned into EcoRI–KpnI and EcoRI–XbaI sites of pTNT (Promega), respectively. The resultant expression vectors, pTNT-THRα and pTNT-THRβ, were used for the synthesis of THRs by in vitro translation.
THRα and THRβ were synthesized by in vitro translation using TNT T7 Quick Coupled Transcription and Translation kit (Promega) according to the manufacturer’s protocol. After incubation at 30 °C for 90 min, the reaction mixtures were stored at −80 °C until use.
The reaction mixture was incubated overnight at 4 °C. A nitrocellulose membrane (Optitran, 0.45 μm in pore size, Whatman) pre-blocked by E-400 buffer was placed on a dot-blot apparatus (Minifold I, GE Healthcare), and the reaction mixtures were filtered through the membrane followed by three washes with 200 μL E-400 buffer. […] Radioactive signals were scanned using Typhoon FLA9000 (GE Healthcare) and quantified by Image Quant TL software (GE Healthcare). The IC50 values for each competitor were calculated by fitting the dose–response data to the log (inhibitor) vs. response (three parameters) model using GraphPad Prism (version 8.0; GraphPad Software).
Data are shown as mean ± SD (n = 3). Data were fitted to the log (inhibitor) vs. response (three parameters) model using GraphPad Prism (version 8.0; GraphPad Software).

[1] = system: high-fat diet (HFD)-induced obesity model mice; assay: Hepatic lipid analysis (total lipid, triglyceride, total cholesterol) in HFD mice; type: in vivo, C57BL/6J mice; set-up: Liver TC (Fig. 4c), individual mouse values / Liver TG (Fig. 4d), individual mouse values / Total lipid, liver (Fig. 4e), individual mouse values / Mean Diff., ND vs. treated (Fig. 4c) / Mean Diff., Vehicle vs. treated (Fig. 4c) / Mean (Fig. 4c) / Mean Diff., ND vs. treated (Fig. 4d) / Mean Diff., Vehicle vs. treated (Fig. 4d) / Mean (Fig. 4d) / Mean 2 (group mean), Fig. 4e / Mean Diff., Vehicle vs. treatment, Fig. 4e: unit not given here; details: for Mean Diff., ND vs. treated (Fig. 4c) / Mean Diff., Vehicle vs. treated (Fig. 4c) / Mean Diff., ND vs. treated (Fig. 4d) / Mean Diff., Vehicle vs. treated (Fig. 4d): Tukey's multiple comparisons test; for Mean (Fig. 4c) / Mean (Fig. 4d) / Mean 2 (group mean), Fig. 4e: group mean, n=10; for Mean 2 (group mean), Fig. 4e: Tukey test details; for Mean Diff., Vehicle vs. treatment, Fig. 4e: vehicle mean 33.43 minus group mean
Procedure: Frozen livers were homogenized with chloroform-methanol (2:1), and the chloroform layer into which the liver lipids were extracted was collected. This extract was used to measure hepatic total lipid, triglyceride (TG), and total cholesterol (TC) contents. […] The total liver lipid content was measured according to the method described by Forch et al.[19].
Fig. 4 Effects of TH analogs on the accumulation of lipids in mice. […] After 3 weeks of injection, serum and liver tissues were collected, and the amount of serum cholesterol (a), serum triglycerides (b), liver cholesterol (c), liver triglycerides (d), and liver total lipids (e) were measured.

[2] = Heart weight (cardiac hypertrophy); details: for Heart weight, group mean (Mean 2): n 10, Vehicle mean 136.7; for heart weight vs vehicle: HFD mice, 3 weeks
Procedure: Male 7-week-old C57BL/6J mice were obtained from a local supplier (Nihon SLC, Shizuoka, Japan). The mice were individually housed in cages (Innocage; ORIENTAL GIKEN) at 23 °C with a 12-h-light–dark cycle starting at 08:00 a.m. […] The injection was prepared by dissolving the compounds in 0.5 N NaOH at a concentration of 100 mM, which was then further diluted with saline to a concentration of either 0.05 or 0.5 mM. The volume of the solution injected was determined based on the body weight of the animal, measured once a week, with 0.05 and 0.5 mM solutions injected at 0.1 and 1 µmol/kg day, respectively. Each group consisted of 10 animals, except for the ND (n = 8) and HFD with saline (vehicle, n = 9) groups.
After three weeks of daily injections, the body weights of the mice were measured. […] Subsequently, the animals were euthanized using deep isoflurane anesthesia, and the liver, heart, and epididymal adipose tissues were removed from the body. […] Hearts were weighed and fixed in 4% paraformaldehyde for 48 h in a cassette (Sakura Finetek Japan, Tokyo, Japan).
Heart weight was measured to assess heart toxicity. Data are shown as the mean ± SEM (n = 8–10). Significant differences among groups are indicated by asterisks (*P < 0.05, and ****P < 0.0001, one-way ANOVA with Tukey’s post-hoc test) (b).

[3] = Serum ALT (hepatotoxicity); details: for Serum ALT, group mean (Mean 2): n 10, Vehicle mean […]; for serum ALT level vs vehicle: HFD mice, 3 weeks
Procedure: Male 7-week-old C57BL/6J mice were obtained from a local supplier (Nihon SLC, Shizuoka, Japan). The mice were individually housed in cages (Innocage; ORIENTAL GIKEN) at 23 °C with a 12-h-light–dark cycle starting at 08:00 a.m. […] The injection was prepared by dissolving the compounds in 0.5 N NaOH at a concentration of 100 mM, which was then further diluted with saline to a concentration of either 0.05 or 0.5 mM. The volume of the solution injected was determined based on the body weight of the animal, measured once a week, with 0.05 and 0.5 mM solutions injected at 0.1 and 1 µmol/kg day, respectively. Each group consisted of 10 animals, except for the ND (n = 8) and HFD with saline (vehicle, n = 9) groups. […] In the HFD-treated group, one animal was excluded from the analysis because its body weight was less than two standard deviations below the mean.
The blood samples were left to stand for 1 h at room temperature, then centrifuged at 4 °C for 15 min at 800 × g, and the supernatant was collected. […] Serum ALT levels were measured using Alanine Aminotransferase (ALT or SGPT) Activity Colorimetric/Fluorometric Assay Kit (BioVision) according to the manufacturer’s protocol.
Data are shown as the mean ± SEM (n = 8–10).

[4] = system: left ventricular cardiomyocytes; assay: Trans-nuclear width of left ventricular cardiomyocytes (hematoxylin-eosin staining); details: for Mean Diff. (Vehicle vs. treated group): Vehicle minus treated, Tukey's multiple comparisons test; for Mean (group mean, Fig. 7c; Tukey's multiple comparisons test details) / Mean Diff. (Vehicle vs. treated group): Fig. 7c
Procedure: Male 7-week-old C57BL/6J mice were obtained from a local supplier (Nihon SLC, Shizuoka, Japan). The mice were individually housed in cages (Innocage; ORIENTAL GIKEN) at 23 °C with a 12-h-light–dark cycle starting at 08:00 a.m. […] The injection was prepared by dissolving the compounds in 0.5 N NaOH at a concentration of 100 mM, which was then further diluted with saline to a concentration of either 0.05 or 0.5 mM. The volume of the solution injected was determined based on the body weight of the animal, measured once a week, with 0.05 and 0.5 mM solutions injected at 0.1 and 1 µmol/kg day, respectively. Each group consisted of 10 animals, except for the ND (n = 8) and HFD with saline (vehicle, n = 9) groups. In the ND-treated group, one animal died during the experimental period, and one animal was excluded from the analysis after finding tumor-like lesions in the liver. In the HFD-treated group, one animal was excluded from the analysis because its body weight was less than two standard deviations below the mean.
Heart tissues were fixed, dehydrated, and permeated with paraffin using an automatic fixation and encapsulation device (Sakura Finetech, Japan). Paraffin blocks were prepared using Tissue Tech TEC 6 (Sakura Finetech, Japan), and 5 µm-thick transverse transmural sections were prepared with a microtome (Leica). The sections were deparaffinized, rehydrated, and immersed in Meyer’s hematoxylin solution (FUJIFILM Wako Pure Chemical Industries), followed by eosin staining. Sections were dehydrated and mounted using Entellan New (Merck). Sections were observed under a microscope (BX43; Olympus) at × 400 magnification and digital images were captured using cellSens (Olympus). 100 cells were randomly selected from the left ventricle of an individual mouse, and their trans-nuclear widths were measured according to Oláh et al.[23] using Image J (National Institute of Health).
Heart sections were prepared and subjected to hematoxylin–eosin staining. 100 cells were randomly selected from the left ventricle of an individual mouse, their trans-nuclear widths were measured, and average values were calculated. Data are shown as the mean ± SEM (n = 8–10). Significant differences among groups are indicated by asterisks (*P < 0.05, **P < 0.01, ***P < 0.001, and ****P < 0.0001, one-way ANOVA with Tukey’s post-hoc test) (c).

[5] = HFD mice, i.p., dose not given (0.1 or 1 µmol/kg day), 3 weeks
[6] = 0.1 µmol dose group vs. Vehicle

Cc1cc(OCC(=O)O)cc(C)c1Cc1ccc(O)c(C(C)C)c1 [GC-1]
affinity to THRα lower than that to THRβ (full-length human THRα): approximately 20 fold | Liver TC (Fig. 4c), individual mouse values ([1]; 0.1 µmol, HFD mice): 1.641 and 1.677 and 1.869 and 2.323 and 2.266 and 1.713 and 1.915 and 2.417 and 2.05 and 2.041 | Liver TG (Fig. 4d), individual mouse values ([1]; 0.1 µmol, HFD mice): 24.1421 and 24.9345 and 16.7281 and 53.1111 and 43.7729 and 30.8738 and 30.6856 and 28.2214 and 34.8729 and 73.7669 | Total lipid, liver (Fig. 4e), individual mouse values ([1]; 0.1 µmol, HFD mice): 14.6 and 17.3 and 14 and 22.6 and 24.3 and 18.1 and 18.3 and 16.9 and 17.5 and 26.9 | Liver TC (Fig. 4c), individual mouse values ([1]; 1 µmol, HFD mice): 1.533 and 1.874 and 2.437 and 2.533 and 1.78 and 2.383 and 1.435 and 2.474 and 2.396 and 2.183 | Liver TG (Fig. 4d), individual mouse values ([1]; 1 µmol, HFD mice): 36.2948 and 32.7305 and 46.4896 and 42.7911 and 37.2232 and 76.8394 and 41.2151 and 27.0034 and 47.7732 and 49.1408 | Total lipid, liver (Fig. 4e), individual mouse values ([1]; 1 µmol, HFD mice): 17.5 and 17.4 and 20.9 and 22.7 and 22.5 and 28.6 and 18.9 and 18.3 and 21 and 19.5 | Mean Diff., ND vs. treated (Fig. 4c) ([1]; ND minus 0.1 µmol group): -0.7328 | Mean Diff., ND vs. treated (Fig. 4c) ([1]; ND minus 1 µmol group): -0.8444 | Mean Diff., Vehicle vs. treated (Fig. 4c) ([1]; Vehicle minus 0.1 µmol group): -0.4289 | Mean Diff., Vehicle vs. treated (Fig. 4c) ([1]; Vehicle minus 1 µmol group): -0.5405 | Mean (Fig. 4c) ([1]; 0.1 µmol, HFD mice): 1.991 | Mean (Fig. 4c) ([1]; 1 µmol, HFD mice): 2.103 | Mean Diff., ND vs. treated (Fig. 4d) ([1]; ND minus 0.1 µmol group): -7.809 | Mean Diff., ND vs. treated (Fig. 4d) ([1]; ND minus 1 µmol group): -15.45 | Mean Diff., Vehicle vs. treated (Fig. 4d) ([1]; Vehicle minus 0.1 µmol group): 37.27 | Mean Diff., Vehicle vs. treated (Fig. 4d) ([1]; Vehicle minus 1 µmol group): 29.63 | Mean (Fig. 4d) ([1]; 0.1 µmol, HFD mice): 36.11 | Mean (Fig. 4d) ([1]; 1 µmol, HFD mice): 43.75 | liver total lipids vs vehicle [1, 5]: significantly decreased | liver triglycerides vs vehicle [1, 5]: significantly decreased | Mean 2 (group mean), Fig. 4e ([1]; HFD mice, 0.1 µmol): 19.05 | Mean Diff., Vehicle vs. treatment, Fig. 4e ([1]; HFD mice, 0.1 µmol): 14.38 | Mean 2 (group mean), Fig. 4e ([1]; HFD mice, 1 µmol): 20.73 | Mean Diff., Vehicle vs. treatment, Fig. 4e ([1]; HFD mice, 1 µmol): 12.7

O=C(O)Cc1cc(C(F)(F)F)c(Cc2ccc(O)c3ccccc23)c(C(F)(F)F)c1 [ZTA-261]
Heart weight (Fig. 7b), individual animal values ([2]; 0.1 µmol dose group): 120.4 and 125.5 and 128.7 and 142.9 and 126.8 and 139.4 and 134.1 and 147.6 and 135.4 and 150.2 | Heart weight, Tukey's multiple comparisons test, Mean Diff. (Vehicle vs. compound) [2, 6]: 1.622 | Heart weight, group mean (Mean 2) ([2]; 0.1 µmol dose group): 135.1 | Heart weight (Fig. 7b), individual animal values ([2]; 1 µmol dose group): 135 and 135.2 and 126.1 and 150.6 and 150.7 and 152.1 and 152.8 and 145.4 and 154.6 and 138.8 | Heart weight, Tukey's multiple comparisons test, Mean Diff. (Vehicle vs. compound) ([2]; 1 µmol dose group vs. Vehicle): -7.408 | Heart weight, group mean (Mean 2) ([2]; 1 µmol dose group): 144.1 | heart weight vs vehicle ([2]; i.p. 0.1 µmol/kg day): No such effect | heart weight vs vehicle ([2]; i.p. 1 µmol/kg day): No such effect | Serum ALT (Fig.7a), individual animal values ([3]; 0.1 µmol dose group): 6.621 and 5.838 and 5.844 and 8.207 and 7.718 and 6.528 and 9.431 and 12.922 and 7.155 and 6.407 | Serum ALT, Tukey's multiple comparisons test, Mean Diff. (Vehicle vs. compound) [3, 6]: 3.439 | Serum ALT, group mean (Mean 2) ([3]; 0.1 µmol dose group): 7.667 | Serum ALT (Fig.7a), individual animal values ([3]; 1 µmol dose group): 16.644 and 8.576 and 9.103 and 8.327 and 7.596 and 9.601 and 12.863 and 9.311 and 13.948 and 12.038 | Serum ALT, Tukey's multiple comparisons test, Mean Diff. (Vehicle vs. compound) ([3]; 1 µmol dose group vs. Vehicle): 0.3054 | Serum ALT, group mean (Mean 2) ([3]; 1 µmol dose group): 10.8 | serum ALT level vs vehicle ([3]; i.p. 0.1 µmol/kg day): did not show a significant increase | serum ALT level vs vehicle ([3]; i.p. 1 µmol/kg day): did not show a significant increase | cardiac width (Fig. 7c), individual values ([4]; 0.1 µmol dose group): 11.9852 and 12.1667 and 12.7952 and 11.4055 and 11.1301 and 11.9423 and 11.9907 and 12.4833 and 12.1061 and 13.5905 | cardiac width (Fig. 7c), individual values ([4]; 1 µmol dose group): 12.0147 and 12.4259 and 11.3636 and 12.41 and 12.0185 and 12.8514 and 11.9471 and 13.2394 and 12.2836 and 12.7848 | Mean (group mean, Fig. 7c; Tukey's multiple comparisons test details) ([4]; HFD mice, dose 0.1 µmol): 12.16 | Mean (group mean, Fig. 7c; Tukey's multiple comparisons test details) ([4]; HFD mice, dose 1 µmol): 12.33 | transnuclear width of left ventricular cardiomyocytes vs vehicle ([4]; HFD mice, i.p. 1 µmol/kg day, 3 weeks): significantly increased | Mean Diff. (Vehicle vs. treated group) ([4]; dose 0.1 µmol): -1.182 | Mean Diff. (Vehicle vs. treated group) ([4]; dose 1 µmol): -1.356
